Results as given in US8802638B1, “Flavonoid treatment of glycogen synthase kinase-based disease” (University of South Florida, priority 2007, dated 2014).

Molecular target: T1, γ-secretase (Mus musculus, UniProt P49769)
T1 construct: endogenous in cells; host or cells: SweAPP N2a cells (lysates of treated cells)
Test: fluorometric assay for γ-secretase cleavage activity in SweAPP N2a cell lysates
Type: cell-based, murine
Details: relative to untreated control
Method: Cultured cells or mouse brain were lysed in ice-cold lysis buffer described above, and an aliquot corresponding to 50 μg of total protein was electrophoretically separated using 12% Tris-HCl or 16.5% Tris-tricine gels. Electrophoresed proteins were then transferred to PVDF membranes, washed in dH2O, and blocked for 1 hr at ambient temperature in Tris-buffered saline (TBS; Bio-Rad) containing 5% (w/v) non-fat dry milk. After blocking, membranes were hybridized for 1 hr at ambient temperature with various primary antibodies. Membranes were then washed 3× for 5 min each in dH2O and incubated for 1 hr at ambient temperature with the appropriate HRP-conjugated secondary antibody (1:1,000). Antibodies were obtained against the amino-terminus and carboxyl-terminus of PS1 (Chemicon, Temecula, Calif.), amino-terminus and carboxyl-terminus of APP (22C11), actin (Roche, Basel, Switzerland), Aβ (6E10, 48G) (Signet Laboratories, Dedham, Mass.), phosphor-GSK3α (ser^21, clone BK202) (Upstate, Lake Placid, N.Y.), phospho-GSK3α/β (pTyr^279/216) (Sigma), phospho-GSK-3β (Ser^9) (Sigma) and total GSK-3α/β (Sigma). […] Densitometric analysis was done as previously described using a FluorS Multiimager with Quantity One™ software (39). […] Antibodies used for Western blot included the APP-carboxyl-terminal antibody (1:50)), amino-terminal APP antibody (clone 22C11), or 6E10 (1:1,000), or actin antibody (1:1,500; as an internal reference control). γ-secretase activity was quantified in cell lysates using available kits based on secretase-specific peptides conjugated to fluorogenic reporter molecules.
Due to the implications on γ-secretase activity, luteolin's effect on SweAPP N2a cells was analyzed using a fluorometric assay for γ-cleavage.
Cultured cells or mouse brain were lysed in ice-cold lysis buffer described above, and an aliquot corresponding to 50 μg of total protein was electrophoretically separated using 12% Tris-HCl or 16.5% Tris-tricine gels. […] Densitometric analysis was done as previously described using a FluorS Multiimager with Quantity One™ software. […]

O=c1cc(-c2ccc(O)c(O)c2)oc2cc(O)cc(O)c12 [luteolin]
γ-secretase cleavage activity: lowered γ-secretase cleavage activity in both a dose and time dependent fashion
